Tested on: Syk/ERK, Src/FAK and JAK2/STAT3 signaling pathways in Ramos cell
Assay: Western blot of Syk/ERK, Src/FAK and JAK2/STAT3 signaling
Assay type: cell-based, Human
Parameters: Syk, Src, JAK2 phosphorylation (in words): dose or concentration left out as unconfirmed
Details: 24 hours
Method: To understand the mechanism of antitumor activities in vivo, pivotal protein activities of Syk/ERK, Src/FAK and JAK2/STAT3 signaling pathways were detected by Western blot analysis. […] Immunohistochemistry assays were performed using tumor tissues isolated from the Ramos tumor model at the end of treatment.
Figure 7 Western blot and histochemical analyses of tumor tissues from the Ramos model (A) SKLB-850 inhibited Syk/ERK, Src/FAK and JAK2/STAT3 signaling pathways. The Ramos cells were incubated for 24 hours in medium containing vehicle, SKLB-850, or R788, and then lysed for western blot assay. (B) H&E staining and immunohistochemical staining of NF-κB, p-Src, p-STAT3 and p-Syk in tumor tissues isolated from vehicle, R788 or SKLB-850 treated groups. SKBL-850 inhibited p-JAK2, p-FAK, p-Src, p-ERK and p-Syk expression in RAMOS cells.
For Ramos cell immunoplot studies, cancer cells were incubated with vehicle, R788, or SKLB-850 for 24 hours, and then lysed in RIPA buffer (Beyotime, China) containing Roche protease inhibitor cocktail, and the protein concentrations were determined by the Bradford method. […]

SMILES: CN1CCN(c2ccc(Nc3ncc(F)c(Nc4ccc(Cl)cc4C(N)=O)n3)cc2)CC1 [SKLB-850, 5-chloro-2-((5-fluoro-2-((4-(4-methylpiperazin-1-yl)phenyl)amino)pyrimidin-4-yl)amino) benzamide]
- Syk, Src, JAK2 phosphorylation (in words): effectively inhibited
- phosphorylation levels of ERK, FAK and Stat3 (in words) (concentrations between 0.01μMl and 1μM/ml): down-regulated
